Data taken from paper PMC8236452, “Pharmacokinetics and safety of rucaparib in patients with advanced solid tumors and hepatic impairment” (Cancer Chemotherapy and Pharmacology, 2021).
Where two headings read alike, the source gives them in different places.

Legend:
[1] = tested on: patients with advanced solid tumors; experiment: Safety and tolerability (TEAEs) after a single oral dose of rucaparib 600 mg; format: in vivo, human; details: for TEAE: Abdominal pain / TEAE: Cholangitis / TEAE: Hyperbilirubinemia / TEAE: Hypokalemia: Grade 3 event; for TEAE: Multiple organ dysfunction syndrome: Grade 5 event
Experimental: Safety and tolerability assessments comprised adverse events, clinical laboratory parameters, vital signs, 12-lead ECG, physical examination, and ECOG PS. For part 1 of this study, symptom-associated physical examination and safety laboratory tests, including clinical chemistry, hematology, coagulation, and urinalysis, were performed on day 7 after administration of the first dose of the study medication; 12-lead ECGs were performed 2 and 4 h postdose. All safety assessments were performed at the end of the treatment visit. Treatment-emergent adverse events (TEAEs) were defined as adverse events with an onset date on or after the date of first dose of study treatment until 28 days after the last dose. Causality of treatment-emergent adverse events was evaluated by investigators based on clinical and scientific data for rucaparib, including previously observed and known reactions, temporal relationship of event to rucaparib administration, patient response on […] rechallenge with the drug, medical history and ongoing concomitant conditions, natural course of the disease, potential effects of concomitant medications and interactions with the study drug, and biological plausibility of the event based on mechanism of action of rucaparib.

[2] = set-up: method as in PMID 32129697; details: in vitro; cited from earlier work
[3] = cited from earlier work
[4] = set-up: method as in PMID 29799676, PMID 31250355, PMID 28264872; details: 600 mg BID, cited from earlier work
[5] = Urine pharmacokinetics (Ae0–24, CLR) after a single oral dose of rucaparib 600 mg in patients with advanced solid tumors; format: in vivo, human; details: urine, single oral rucaparib 600 mg; for CL renal: human, po, 600 mg
Excerpt: Stable deuterium-labeled analytes were used as internal standards.
PK parameters were estimated from the concentration–time profiles.

[6] = set-up: method as in PMID 28222073; details: immediate-release tablet; cited from earlier work
[7] = cited from earlier work; remark: listed apart in the source
patients = tested on: patients; set-up: method as in PMID 28264872; details: dose escalation study; not reached; cited from earlier work
[8] = Moderate hepatic impairment (NCI-ODWG, n = 8)
[9] = Normal hepatic function (NCI-ODWG, n = 8)
[10] = estimated with 36% absolute oral bioavailability
[11] = Child–Pugh mild hepatic impairment
[12] = Child–Pugh moderate hepatic impairment
[13] = Child–Pugh severe hepatic impairment
[14] = NCI-ODWG moderate hepatic impairment
[15] = NCI-ODWG normal hepatic function

With `CNCc1ccc(-c2[nH]c3cc(F)cc4c3c2CCNC4=O)cc1` [rucaparib] the “TEAE: Anemia” value [1, 8] was 1 (12.5) n (%), the “TEAE: Ascites” value [1, 8] was 1 (12.5) n (%) and the “TEAE: Body temperature increased” value [1, 8] was 1 (12.5) n (%). The “TEAE: Conjunctival hemorrhage” value [1, 8] was 1 (12.5) n (%), the “TEAE: Decreased appetite” value [1, 8] was 0 n (%) and the “TEAE: Nausea” value [1, 8] was 0 n (%). For the same compound, the “TEAE: Pyrexia” value [1, 8] was 1 (12.5) n (%), the “TEAE: Renal failure” value [1, 8] was 1 (12.5) n (%) and the “TEAE: Thrombocytopenia” value [1, 8] was 1 (12.5) n (%). The “TEAE: Urinary tract infection” value [1, 8] was 1 (12.5) n (%), the “TEAEs: Patients with any event” value [1, 8] was 6 (75.0) n (%) and the “TEAE: Abdominal pain” value [1, 8] was 1 (12.5) n (%). The “TEAE: Cholangitis” value [1, 8] was 1 (12.5) n (%), the “TEAE: Hyperbilirubinemia” value [1, 8] was 1 (12.5) n (%) and the “TEAE: Hypokalemia” value [1, 8] was 1 (12.5) n (%). The “TEAE: Multiple organ dysfunction syndrome” value [1, 8] was 1 (12.5) n (%), the “TEAE: Anemia” value [1, 9] was 0 n (%) and the “TEAE: Ascites” value [1, 9] was 0 n (%). The “TEAE: Body temperature increased” value [1, 9] was 0 n (%), the “TEAE: Conjunctival hemorrhage” value [1, 9] was 0 n (%) and the “TEAE: Decreased appetite” value [1, 9] was 1 (12.5) n (%). The “TEAE: Nausea” value [1, 9] was 1 (12.5) n (%), the “TEAE: Pyrexia” value [1, 9] was 0 n (%) and the “TEAE: Renal failure” value [1, 9] was 0 n (%). For the same compound, the “TEAE: Thrombocytopenia” value [1, 9] was 0 n (%), the “TEAE: Urinary tract infection” value [1, 9] was 0 n (%) and the “TEAEs: Patients with any event” value [1, 9] was 2 (25.0) n (%). For the same compound, the “TEAE: Abdominal pain” value [1, 9] was 0 n (%), the “TEAE: Cholangitis” value [1, 9] was 0 n (%) and the “TEAE: Hyperbilirubinemia” value [1, 9] was 0 n (%). For the same compound, the “TEAE: Hypokalemia” value [1, 9] was 0 n (%), the “TEAE: Multiple organ dysfunction syndrome” value [1, 9] was 0 n (%) and the “TEAE: Anemia” value ([1]; Overall (N = 16)) was 1 (6.3) n (%). For the same compound, the “TEAE: Ascites” value ([1]; Overall (N = 16)) was 1 (6.3) n (%), the “TEAE: Body temperature increased” value ([1]; Overall (N = 16)) was 1 (6.3) n (%) and the “TEAE: Conjunctival hemorrhage” value ([1]; Overall (N = 16)) was 1 (6.3) n (%). The “TEAE: Decreased appetite” value ([1]; Overall (N = 16)) was 1 (6.3) n (%), the “TEAE: Nausea” value ([1]; Overall (N = 16)) was 1 (6.3) n (%) and the “TEAE: Pyrexia” value ([1]; Overall (N = 16)) was 1 (6.3) n (%). The “TEAE: Renal failure” value ([1]; Overall (N = 16)) was 1 (6.3) n (%), the “TEAE: Thrombocytopenia” value ([1]; Overall (N = 16)) was 1 (6.3) n (%) and the “TEAE: Urinary tract infection” value ([1]; Overall (N = 16)) was 1 (6.3) n (%). The “TEAEs: Patients with any event” value ([1]; Overall (N = 16)) was 8 (50.0) n (%), the “TEAE: Abdominal pain” value ([1]; Overall (N = 16)) was 1 (6.3) n (%) and the “TEAE: Cholangitis” value ([1]; Overall (N = 16)) was 1 (6.3) n (%). The “TEAE: Hyperbilirubinemia” value ([1]; Overall (N = 16)) was 1 (6.3) n (%), the “TEAE: Hypokalemia” value ([1]; Overall (N = 16)) was 1 (6.3) n (%) and the “TEAE: Multiple organ dysfunction syndrome” value ([1]; Overall (N = 16)) was 1 (6.3) n (%). For the same compound, the “Patients who withdrew from the study due to a TEAE” value ([1]; after completion of PK assessment in Part 1, both in the moderate hepatic impairment group) was “two”, the “Patients who experienced at least 1 TEAE” value ([1]; all 16 patients) was 50% and the “System Organ Class TEAEs: gastrointestinal disorders” value ([1]; all 16 patients, abdominal pain, ascites, nausea) was 18.8%. The “Patients with at least 1 TEAE of grade 3 or higher” value ([1]; all in the moderate hepatic impairment group) was “Four”, the “TEAEs considered treatment related” value ([1]; grade 1 anemia and grade 1 thrombocytopenia, one patient, moderate hepatic impairment group) was 2 TEAEs and the “Patients who experienced at least 1 TEAE” value ([1]; moderate hepatic impairment group) was 75.0%. For the same compound, the “Patients who experienced at least 1 TEAE” value ([1]; normal hepatic function group) was 25.0%, the “Trends in clinical laboratory parameters, vital signs, ECG, physical examinations” value ([1]; single oral rucaparib 600 mg) was “no clinically relevant treatment-related trends observed” and the metabolic turnover rate [2] was “low”. For the same compound, the “hepatic elimination route, share of total clearance” value [3, 10] was ~ 70%, the “renal elimination route, share of total clearance” value [3, 10] was ~ 30% and the “mean terminal half-life (t1/2)” value ([3]; single oral dose of [14C]-rucaparib 600 mg) was 25.9 h. The “AUC0–12 h at steady state” value ([4]; 54% CV) was 16900 h⋅ng/mL, the “mean steady-state maximum plasma concentration (Cmax,ss)” value ([4]; 54% CV) was 1940 ng/mL and the “Median time to steady-state maximum concentration (tmax,ss)” value [4] was 6840 s. For the same compound, the “time to achieve steady state” value [4] was 1 week, the CL renal ([5]; Child–Pugh mild hepatic impairment, read-out: CLR, GM) was 55.2 mL/min and the CL renal ([5]; Child–Pugh mild hepatic impairment, read-out: CLR, Mean (SD)) was 56.7 mL/min. The CL renal ([5]; Child–Pugh mild hepatic impairment, read-out: CLR, Median (min–max)) was 59.5 mL/min, the CL renal ([5]; Child–Pugh moderate hepatic impairment, read-out: CLR, GM) was 48.8 mL/min and the CL renal ([5]; Child–Pugh moderate hepatic impairment, read-out: CLR, Mean (SD)) was 52.3 mL/min. The CL renal ([5]; Child–Pugh moderate hepatic impairment, read-out: CLR, Median (min–max)) was 53.7 mL/min, the CL renal ([5]; Child–Pugh severe hepatic impairment, read-out: CLR, GM) was 16 mL/min and the CL renal ([5]; Child–Pugh severe hepatic impairment, read-out: CLR, Mean (SD)) was 20.1 mL/min. It also gave a CL renal ([5]; Child–Pugh severe hepatic impairment, read-out: CLR, Median (min–max)) of 20.1 mL/min, a CL renal ([5]; NCI-ODWG moderate hepatic impairment, read-out: CLR, GM) of 36.9 mL/min and a CL renal ([5]; NCI-ODWG moderate hepatic impairment, read-out: CLR, Mean (SD)) of 46.2 mL/min. For the same compound, the CL renal ([5]; NCI-ODWG moderate hepatic impairment, read-out: CLR, Median (min–max)) was 41.1 mL/min, the CL renal ([5]; NCI-ODWG normal hepatic function, read-out: CLR, GM) was 52.5 mL/min and the CL renal ([5]; NCI-ODWG normal hepatic function, read-out: CLR, Mean (SD)) was 53.5 mL/min. For the same compound, the CL renal ([5]; NCI-ODWG normal hepatic function, read-out: CLR, Median (min–max)) was 56.1 mL/min, the “Ae0–24, GM” value [5, 11] was 17.6 mg and the “Ae0–24, Mean (SD)” value [5, 11] was 20.7 (11.9) mg. The “Ae0–24, Median (min–max)” value [5, 11] was 21.4 (7.69–40.6) mg, the “Ae0–24, GM” value [5, 12] was 28.2 mg and the “Ae0–24, Mean (SD)” value [5, 12] was 29.8 (9.93) mg. The “Ae0–24, Median (min–max)” value [5, 12] was 33.2 (16.7–41.5) mg, the “Ae0–24, GM” value [5, 13] was 8.49 mg and the “Ae0–24, Mean (SD)” value [5, 13] was 8.89 (3.72) mg. For the same compound, the “Ae0–24, Median (min–max)” value [5, 13] was 8.89 (6.26–11.5) mg, the “Ae0–24, GM” value [5, 14] was 16.0 mg and the “Ae0–24, Mean (SD)” value [5, 14] was 19.8 (13.7) mg. The “Ae0–24, Median (min–max)” value [5, 14] was 16.7 (6.26–41.5) mg, the “Ae0–24, GM” value [5, 15] was 22.8 mg and the “Ae0–24, Mean (SD)” value [5, 15] was 25.4 (10.9) mg. For the same compound, the “Ae0–24, Median (min–max)” value [5, 15] was 27.0 (7.69–40.6) mg, the “absolute bioavailability, range” value [6] was 30–45% and the mean absolute bioavailability [6] was 36%. For the same compound, the plasma protein binding [7] was 70% and the maximum tolerated dose (patients) was over 840 mg BID.
